PubChem BioAssay AID328 (DTP/NCI, 2004)
“And” between values parts separate entries of the source, which are not always exact repeats. Identical values can stand only once. Toxic doses and inconclusive results are not listed.

System: BDF1 mice, P388 leukemia ip, median survival T/C
Test: NCI In Vivo Anticancer Drug Screen. Data for tumor model P388 Leukemia (intraperitoneal) in B6D2F1 (BDF1) mice
Conditions: endpoint: median survival time, higher = longer survival
Outline: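 Read-out is survival of treated animals expressed relative to the vehicle group, as a T/C ratio.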

[1] = dose: 100.0 mg/kg/injection, schedule: Q04DX003 (ip), vehicle: water
[2] = dose: 200.0 mg/kg/injection, schedule: Q04DX003 (ip), vehicle: water
[3] = dose: 400.0 mg/kg/injection, schedule: Q04DX003 (ip), vehicle: water
[4] = dose: 50.0 mg/kg/injection, schedule: Q01DX009 (ip), vehicle: saline
[5] = dose: 100.0 mg/kg/injection, schedule: Q01DX009 (ip), vehicle: saline
[6] = dose: 100.0 mg/kg/injection, schedule: Q01DX009 (ip), vehicle: water
[7] = dose: 200.0 mg/kg/injection, schedule: Q01DX009 (ip), vehicle: water
[8] = dose: 400.0 mg/kg/injection, schedule: Q01DX009 (ip), vehicle: water
[9] = dose: 100.0 mg/kg/injection, schedule: Q01DX009 (ip), vehicle: saline with Tween-80
[10] = dose: 200.0 mg/kg/injection, schedule: Q01DX009 (ip), vehicle: saline with Tween-80
[11] = dose: 400.0 mg/kg/injection, schedule: Q01DX009 (ip), vehicle: saline with Tween-80
[12] = dose: 100.0 mg/kg/injection, schedule: Q04DX003 (ip), vehicle: Klucel (hydroxypropylcellulose) (HPC)
[13] = dose: 200.0 mg/kg/injection, schedule: Q04DX003 (ip), vehicle: Klucel (hydroxypropylcellulose) (HPC)

CCOC(=O)C(=O)NCc1cnccn1
T/C [1]: 104 % of control | T/C [2]: 104 % of control | T/C [3]: 100 % of control

CC1CN1CCS(=O)(=O)CCN1CC1C (stereo not drawn)
T/C (dose: 22.0 mg/kg/injection, schedule: Q04DX003 (ip), vehicle: saline): 105 % of control | T/C (dose: 33.0 mg/kg/injection, schedule: Q04DX003 (ip), vehicle: saline): 100 % of control | T/C (dose: 50.0 mg/kg/injection, schedule: Q04DX003 (ip), vehicle: saline): 111 % of control | T/C (dose: 75.0 mg/kg/injection, schedule: Q04DX003 (ip), vehicle: saline): 122 % of control | T/C (dose: 150.0 mg/kg/injection, schedule: Q01DX009 (ip), vehicle: other): 163 % of control | T/C (dose: 225.0 mg/kg/injection, schedule: Q01DX009 (ip), vehicle: other): 209 % of control

CC(C)(N)CNC(C)(C)CO
T/C [4]: 95 % of control | T/C [5]: 111 % of control | T/C (dose: 200.0 mg/kg/injection, schedule: Q01DX009 (ip), vehicle: saline): 92 % of control

N/C(=N\N=C\c1ccc(-c2ccccc2)cc1)N[N+](=O)[O-]
T/C (dose: 25.0 mg/kg/injection, schedule: Q01DX010 (ip), vehicle: carboxymethylcellulose (CMC)): 100 % of control | T/C (dose: 50.0 mg/kg/injection, schedule: Q01DX010 (ip), vehicle: carboxymethylcellulose (CMC)): 100 % of control | T/C (dose: 100.0 mg/kg/injection, schedule: Q01DX010 (ip), vehicle: carboxymethylcellulose (CMC)): 100 % of control | T/C (dose: 200.0 mg/kg/injection, schedule: Q01DX010 (ip), vehicle: carboxymethylcellulose (CMC)): 100 % of control

CCOC(=O)C1=C(Nc2ccccc2)CSC1
T/C (dose: 25.0 mg/kg/injection, schedule: Q01DX009 (ip), vehicle: water): 94 % of control | T/C (dose: 50.0 mg/kg/injection, schedule: Q01DX009 (ip), vehicle: water): 97 % of control | T/C [6]: 102 % of control | T/C [7]: 108 % of control | T/C [8]: 91 % of control

COc1cc(NC(=O)N(CCCl)N=O)cc(OC)c1OC
T/C (dose: 0.88 mg/kg/injection, schedule: Q04DX003 (ip), vehicle: saline + alcohol): 114 % of control | T/C (dose: 1.6 mg/kg/injection, schedule: Q01DX009 (ip), vehicle: saline + alcohol): 168 % of control | T/C (dose: 2.4 mg/kg/injection, schedule: Q01DX009 (ip), vehicle: saline + alcohol): 161 % of control | T/C (dose: 3.0 mg/kg/injection, schedule: Q04DX003 (ip), vehicle: saline + alcohol): 166 % of control | T/C (dose: 3.7 mg/kg/injection, schedule: Q01DX009 (ip), vehicle: saline + alcohol): 203 % of control | T/C (dose: 5.5 mg/kg/injection, schedule: Q04DX003 (ip), vehicle: saline + alcohol): 168 % of control | T/C (dose: 5.56 mg/kg/injection, schedule: Q01DX009 (ip), vehicle: saline + alcohol): 201 % of control and 203 % of control | T/C (dose: 8.3 mg/kg/injection, schedule: Q04DX003 (ip), vehicle: saline + alcohol): 218 % of control | T/C (dose: 8.33 mg/kg/injection, schedule: Q01DX009 (ip), vehicle: saline + alcohol): 220 % of control | T/C (dose: 12.5 mg/kg/injection, schedule: Q01DX009 (ip), vehicle: saline + alcohol): 226 % of control | T/C (dose: 12.5 mg/kg/injection, schedule: Q04DX003 (ip), vehicle: saline + alcohol): 227 % of control | T/C (dose: 18.7 mg/kg/injection, schedule: Q01DX009 (ip), vehicle: saline + alcohol): 111 % of control | T/C (dose: 18.7 mg/kg/injection, schedule: Q04DX003 (ip), vehicle: saline + alcohol): 268 % of control | T/C (dose: 25.0 mg/kg/injection, schedule: Q01DX009 (ip), vehicle: saline + alcohol): 108 % of control

O=C1c2ccccc2C(=O)N1c1ccc(S(=O)(=O)c2ccc(N3C(=O)c4ccccc4C3=O)cc2)cc1
T/C (dose: 87.5 mg/kg/injection, schedule: Q01DX009 (ip), vehicle: saline with Tween-80): 104 % of control | T/C (dose: 175.0 mg/kg/injection, schedule: Q01DX009 (ip), vehicle: saline with Tween-80): 100 % of control | T/C (dose: 350.0 mg/kg/injection, schedule: Q01DX009 (ip), vehicle: saline with Tween-80): 98 % of control

CCSc1ncc(C)c(Cl)n1
T/C [6]: 107 % of control | T/C [1]: 105 % of control | T/C [7]: 99 % of control | T/C [2]: 107 % of control | T/C [8]: 108 % of control | T/C [3]: 103 % of control

COc1c(C)c(OCC=C(C)C)cc(CO)c1CO
T/C (dose: 50.0 mg/kg/injection, schedule: Q01DX009 (ip), vehicle: Klucel (hydroxypropylcellulose) (HPC)): 109 % of control | T/C (dose: 100.0 mg/kg/injection, schedule: Q01DX009 (ip), vehicle: Klucel (hydroxypropylcellulose) (HPC)): 109 % of control | T/C (dose: 200.0 mg/kg/injection, schedule: Q01DX009 (ip), vehicle: Klucel (hydroxypropylcellulose) (HPC)): 100 % of control

O=C(O)C1(O)C(Cl)(Cl)C(Cl)=C(Cl)C1(Cl)Cl
T/C (dose: 25.0 mg/kg/injection, schedule: Q01DX009 (ip), vehicle: saline): 118 % of control | T/C [4]: 122 % of control | T/C [5]: 118 % of control

COc1cc2c(cc1OC)C1CCN3CCCC3N1CC2 (stereo not drawn)
T/C (dose: 100.0 mg/kg/injection, schedule: Q01DX001 (ip), vehicle: Klucel (hydroxypropylcellulose) (HPC)): 109 % of control | T/C (dose: 200.0 mg/kg/injection, schedule: Q01DX001 (ip), vehicle: Klucel (hydroxypropylcellulose) (HPC)): 90 % of control

S=P(N1CC1)(N1CC1)N1CC1
T/C (dose: 0.19 mg/kg/injection, schedule: Q01DX009 (ip), vehicle: saline): 114 % of control | T/C (dose: 0.75 mg/kg/injection, schedule: Q01DX010 (ip), vehicle: saline): 90 % of control | T/C (dose: 1.0 mg/kg/injection, schedule: Q01DX001 (oral), vehicle: saline): 109 % of control | T/C (dose: 1.5 mg/kg/injection, schedule: Q01DX009 (ip), vehicle: saline): 121 % of control | T/C (dose: 1.5 mg/kg/injection, schedule: Q01DX010 (ip), vehicle: saline): 90 % of control and 109 % of control | T/C (dose: 3.0 mg/kg/injection, schedule: Q01DX009 (ip), vehicle: saline): 112 % of control | T/C (dose: 6.0 mg/kg/injection, schedule: Q01DX009 (ip), vehicle: saline): 91 % of control and 93 % of control and 206 % of control | T/C (dose: 6.0 mg/kg/injection, schedule: Q01DX010 (ip), vehicle: saline): 109 % of control and 110 % of control | T/C (dose: 12.0 mg/kg/injection, schedule: Q01DX009 (ip), vehicle: saline): 111 % of control

CC(=O)CC(=O)OCc1ccccc1
T/C [9]: 100 % of control | T/C [10]: 118 % of control | T/C [11]: 100 % of control

COc1cc2ccc3c4cc5c(cc4cnc3c2cc1OC)OCO5
T/C (dose: 12.5 mg/kg/injection, schedule: Q01DX009 (ip), vehicle: saline with Tween-80): 109 % of control and 119 % of control | T/C (dose: 12.5 mg/kg/injection, schedule: Q04DX003 (ip), vehicle: saline with Tween-80): 102 % of control | T/C (dose: 25.0 mg/kg/injection, schedule: Q01DX009 (ip), vehicle: saline with Tween-80): 106 % of control | T/C (dose: 25.0 mg/kg/injection, schedule: Q04DX003 (ip), vehicle: saline with Tween-80): 100 % of control | T/C (dose: 50.0 mg/kg/injection, schedule: Q01DX009 (ip), vehicle: saline with Tween-80): 106 % of control | T/C (dose: 50.0 mg/kg/injection, schedule: Q04DX003 (ip), vehicle: saline with Tween-80): 92 % of control | T/C [9]: 99 % of control and 100 % of control and 114 % of control | T/C [10]: 107 % of control and 111 % of control | T/C [11]: 101 % of control and 124 % of control | T/C (dose: 400.0 mg/kg/injection, schedule: Q04DX003 (ip), vehicle: saline with Tween-80): 92 % of control

CC1=CCC(CC(N)=O)C1(C)C (stereo not drawn)
T/C (dose: 100.0 mg/kg/injection, schedule: Q01DX001 (ip), vehicle: saline with Tween-80): 105 % of control | T/C (dose: 200.0 mg/kg/injection, schedule: Q01DX001 (ip), vehicle: saline with Tween-80): 103 % of control | T/C (dose: 400.0 mg/kg/injection, schedule: Q01DX001 (ip), vehicle: saline with Tween-80): 92 % of control

COc1cc(C=Nc2cccc(C(=O)O)c2)ccc1N(CCCl)CCCl
T/C (dose: 66.0 mg/kg/injection, schedule: Q04DX003 (ip), vehicle: saline with Tween-80): 260 % of control

O=[N+]([O-])c1ccc(N/N=C/c2ccccn2)cc1
T/C [12]: 104 % of control | T/C [13]: 100 % of control | T/C (dose: 400.0 mg/kg/injection, schedule: Q04DX003 (ip), vehicle: Klucel (hydroxypropylcellulose) (HPC)): 109 % of control

O=C1CC(c2ccc(O)cc2)CC(=O)C1C(C1CC=CCC1)N(CCCl)CCCl (stereo not drawn)
T/C [12]: 109 % of control and 87 % of control | T/C [13]: 120 % of control
